The source made the active and inactive calls.
What was measured:
[1] = target: Peroxisome proliferator-activated receptor gamma/Nuclear receptor corepressor 2 (Homo sapiens, UniProt P37231+Q9Y618); experiment: Counterscreen for NR2E3 inverse agonists: TR-FRET-based biochemical high throughput dose response assay to identify inverse agonists of the interaction between peroxisome proliferator-activated receptor gamma (PPARg) and nuclear receptor co-repressor 2 (NCOR2).; format: functional
[2] = target: T1, Streptokinase A (Streptococcus pyogenes serotype M1, UniProt P10520); experiment: viability-normalized secreted streptokinase activity reduction – plasminogen activation absorbance, OD405, dose response (AID 1914); format: functional, Streptococcus pyogenes M1 GAS;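 note: secreted streptokinase activity via plasminogen activation per viability signal from cell pellet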
T1 sequence (P10520 whole entry): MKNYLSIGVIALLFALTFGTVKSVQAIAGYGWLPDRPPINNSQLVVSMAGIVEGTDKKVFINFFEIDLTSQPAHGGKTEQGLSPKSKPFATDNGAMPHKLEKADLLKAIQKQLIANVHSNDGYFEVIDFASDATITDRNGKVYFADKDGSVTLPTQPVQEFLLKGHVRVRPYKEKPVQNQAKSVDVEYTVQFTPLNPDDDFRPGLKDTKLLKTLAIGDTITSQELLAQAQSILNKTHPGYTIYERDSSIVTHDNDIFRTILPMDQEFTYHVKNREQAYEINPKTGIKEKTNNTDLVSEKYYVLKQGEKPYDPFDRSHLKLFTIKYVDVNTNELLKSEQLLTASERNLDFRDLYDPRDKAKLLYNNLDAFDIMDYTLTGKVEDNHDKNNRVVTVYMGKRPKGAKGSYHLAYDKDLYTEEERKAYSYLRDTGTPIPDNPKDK

[3] = system: Streptococcus; experiment: GAS UMAA2166 growth inhibition – luminescence, BacTiterGlo, counter-screen for streptokinase expression inhibitor project, dose response (AID 1915); format: functional, organism-based;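 note: potency for reduction of bacterial viability or growth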
[4] = target: T2, Photoreceptor-specific nuclear receptor (Homo sapiens, UniProt Q9Y5X4); experiment: ligands suppressing NR2E3 nuclear receptor activity – biochemical, TR-FRET, dose response (AID 463256); format: functional
T2 sequence (Q9Y5X4 whole entry): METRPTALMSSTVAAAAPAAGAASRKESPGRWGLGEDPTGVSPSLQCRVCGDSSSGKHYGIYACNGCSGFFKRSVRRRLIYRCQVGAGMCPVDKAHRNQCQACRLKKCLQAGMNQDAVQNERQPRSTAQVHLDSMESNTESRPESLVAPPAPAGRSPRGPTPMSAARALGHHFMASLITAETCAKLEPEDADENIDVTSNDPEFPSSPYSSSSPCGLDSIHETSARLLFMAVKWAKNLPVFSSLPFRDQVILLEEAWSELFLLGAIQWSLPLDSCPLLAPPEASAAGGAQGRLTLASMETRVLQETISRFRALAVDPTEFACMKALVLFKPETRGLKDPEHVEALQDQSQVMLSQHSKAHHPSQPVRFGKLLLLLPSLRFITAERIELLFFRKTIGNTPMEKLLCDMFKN

[5] = target: T3, Voltage-gated N-type calcium channel alpha-1B subunit/Amyloid beta A4 precursor protein-binding family A member 1 (Homo sapiens, UniProt Q00975+Q02410); format: protein assay
T3 sequence (Q00975 whole entry): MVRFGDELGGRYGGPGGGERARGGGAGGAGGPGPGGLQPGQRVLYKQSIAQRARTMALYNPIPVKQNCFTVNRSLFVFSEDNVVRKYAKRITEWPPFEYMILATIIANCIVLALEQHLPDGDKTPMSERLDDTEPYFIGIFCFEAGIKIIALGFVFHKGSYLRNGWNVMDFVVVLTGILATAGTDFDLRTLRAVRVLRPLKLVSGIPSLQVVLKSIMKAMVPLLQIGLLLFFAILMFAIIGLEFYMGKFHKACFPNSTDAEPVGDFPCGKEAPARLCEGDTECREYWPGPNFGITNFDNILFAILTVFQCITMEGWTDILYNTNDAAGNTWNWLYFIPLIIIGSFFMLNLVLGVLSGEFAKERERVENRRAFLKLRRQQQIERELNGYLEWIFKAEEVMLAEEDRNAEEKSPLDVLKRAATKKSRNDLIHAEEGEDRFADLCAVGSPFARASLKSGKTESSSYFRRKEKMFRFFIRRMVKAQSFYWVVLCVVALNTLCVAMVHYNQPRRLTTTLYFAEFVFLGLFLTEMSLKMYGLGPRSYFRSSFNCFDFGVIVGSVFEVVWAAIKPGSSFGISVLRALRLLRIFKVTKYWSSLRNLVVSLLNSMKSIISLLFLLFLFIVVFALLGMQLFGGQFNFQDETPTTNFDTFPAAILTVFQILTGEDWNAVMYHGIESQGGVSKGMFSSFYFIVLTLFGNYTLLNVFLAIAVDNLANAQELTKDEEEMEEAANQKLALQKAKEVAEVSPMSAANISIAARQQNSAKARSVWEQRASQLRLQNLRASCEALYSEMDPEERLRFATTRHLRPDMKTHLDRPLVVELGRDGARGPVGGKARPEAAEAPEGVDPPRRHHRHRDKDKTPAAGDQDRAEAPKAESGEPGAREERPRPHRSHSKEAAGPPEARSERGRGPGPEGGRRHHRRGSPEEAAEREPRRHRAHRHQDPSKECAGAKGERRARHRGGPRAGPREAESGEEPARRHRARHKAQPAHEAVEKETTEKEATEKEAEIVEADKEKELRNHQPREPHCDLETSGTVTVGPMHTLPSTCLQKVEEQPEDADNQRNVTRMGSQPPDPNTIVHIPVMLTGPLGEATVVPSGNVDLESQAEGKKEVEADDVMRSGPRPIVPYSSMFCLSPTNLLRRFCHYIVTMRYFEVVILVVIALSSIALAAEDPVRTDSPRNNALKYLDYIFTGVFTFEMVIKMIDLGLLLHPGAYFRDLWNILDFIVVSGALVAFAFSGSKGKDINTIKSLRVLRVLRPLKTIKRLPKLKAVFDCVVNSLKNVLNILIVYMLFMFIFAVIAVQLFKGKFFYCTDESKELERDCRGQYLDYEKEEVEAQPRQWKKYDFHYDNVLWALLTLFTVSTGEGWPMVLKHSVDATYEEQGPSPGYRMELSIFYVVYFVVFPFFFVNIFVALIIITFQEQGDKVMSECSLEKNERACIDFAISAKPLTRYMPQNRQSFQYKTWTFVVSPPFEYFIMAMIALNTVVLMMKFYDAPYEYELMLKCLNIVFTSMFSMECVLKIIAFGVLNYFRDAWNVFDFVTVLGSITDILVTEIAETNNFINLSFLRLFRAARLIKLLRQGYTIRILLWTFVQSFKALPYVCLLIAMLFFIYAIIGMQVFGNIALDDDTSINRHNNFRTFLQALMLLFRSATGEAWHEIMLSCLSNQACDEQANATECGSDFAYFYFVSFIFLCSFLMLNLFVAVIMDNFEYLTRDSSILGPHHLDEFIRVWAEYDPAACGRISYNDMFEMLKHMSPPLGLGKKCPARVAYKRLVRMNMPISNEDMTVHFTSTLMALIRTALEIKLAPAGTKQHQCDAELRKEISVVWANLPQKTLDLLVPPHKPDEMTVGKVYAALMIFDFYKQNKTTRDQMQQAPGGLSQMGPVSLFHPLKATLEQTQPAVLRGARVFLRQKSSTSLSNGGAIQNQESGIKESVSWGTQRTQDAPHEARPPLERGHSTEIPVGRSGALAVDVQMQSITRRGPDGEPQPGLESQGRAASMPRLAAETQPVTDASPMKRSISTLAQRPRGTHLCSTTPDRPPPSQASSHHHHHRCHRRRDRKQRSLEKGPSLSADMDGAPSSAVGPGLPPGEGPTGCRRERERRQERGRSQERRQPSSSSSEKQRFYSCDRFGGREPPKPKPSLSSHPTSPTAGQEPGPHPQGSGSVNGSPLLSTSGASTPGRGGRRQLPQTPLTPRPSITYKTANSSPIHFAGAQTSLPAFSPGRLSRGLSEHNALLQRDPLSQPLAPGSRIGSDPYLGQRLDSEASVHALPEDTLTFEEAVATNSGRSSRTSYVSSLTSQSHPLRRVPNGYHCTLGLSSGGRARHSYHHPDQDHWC
T3 sequence (Q02410 whole entry): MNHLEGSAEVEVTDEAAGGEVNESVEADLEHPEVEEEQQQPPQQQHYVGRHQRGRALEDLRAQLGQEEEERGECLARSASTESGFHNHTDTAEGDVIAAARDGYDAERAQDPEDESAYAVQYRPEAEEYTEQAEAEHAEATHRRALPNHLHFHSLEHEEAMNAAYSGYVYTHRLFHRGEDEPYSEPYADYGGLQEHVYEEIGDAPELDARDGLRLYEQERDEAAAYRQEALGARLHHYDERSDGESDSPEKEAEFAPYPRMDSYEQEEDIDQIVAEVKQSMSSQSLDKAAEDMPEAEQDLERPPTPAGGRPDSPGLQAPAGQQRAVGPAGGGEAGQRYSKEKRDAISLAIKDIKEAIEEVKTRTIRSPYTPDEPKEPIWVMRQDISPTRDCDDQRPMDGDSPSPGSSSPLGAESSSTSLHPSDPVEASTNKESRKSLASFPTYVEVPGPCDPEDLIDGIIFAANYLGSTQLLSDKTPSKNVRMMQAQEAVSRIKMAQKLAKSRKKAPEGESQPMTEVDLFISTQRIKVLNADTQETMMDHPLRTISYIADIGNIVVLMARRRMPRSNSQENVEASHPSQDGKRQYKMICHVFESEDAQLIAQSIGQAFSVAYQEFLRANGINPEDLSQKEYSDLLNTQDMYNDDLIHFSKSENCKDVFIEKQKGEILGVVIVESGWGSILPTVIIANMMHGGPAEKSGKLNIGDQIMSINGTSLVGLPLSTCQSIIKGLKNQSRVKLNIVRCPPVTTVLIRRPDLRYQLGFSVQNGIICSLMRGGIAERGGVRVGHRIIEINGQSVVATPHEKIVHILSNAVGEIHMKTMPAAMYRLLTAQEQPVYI

[6] = system: Streptococcus sp. 'group A'; experiment: Streptococcus pyogenes SK(-)GAS viability under kanamycin – luminescence, BacTiterGlo, confirmation, counter-screen for streptokinase expression inhibitor project, dose response (AID 1900); format: functional, organism-based
[7] = target: T2, Photoreceptor-specific nuclear receptor; format: functional, cell-based
[8] = target: T3, Voltage-gated N-type calcium channel alpha-1B subunit/Amyloid beta A4 precursor protein-binding family A member 1; format: protein assay; remark: listed apart in the source
[9] = target: Lytic switch protein BZLF1 (Epstein-Barr virus (strain B95-8) (HHV-4) (Human herpesvirus 4), UniProt P03206); experiment: inhibition of BZLF1 ZTA DNA binding – biochemical, fluorescence polarization, Epstein-Barr virus, 1536-well, counter-screen for EBNA-1 inhibitor project, dose response (AID 2377); set-up: species or system human gammaherpesvirus 4;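 note: fluorescence polarization of Cy5-labelled ZRE DNA probe bound by purified Zta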
Sequence of Lytic switch protein BZLF1 (P03206 whole entry): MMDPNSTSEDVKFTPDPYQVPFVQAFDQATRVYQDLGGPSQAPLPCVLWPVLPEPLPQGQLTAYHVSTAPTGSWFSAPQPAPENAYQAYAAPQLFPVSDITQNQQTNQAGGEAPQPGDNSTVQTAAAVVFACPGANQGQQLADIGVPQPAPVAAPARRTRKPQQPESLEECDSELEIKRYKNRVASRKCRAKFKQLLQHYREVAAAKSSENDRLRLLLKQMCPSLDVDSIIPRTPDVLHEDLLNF

[10] = target: Epstein-Barr nuclear antigen 1 (Epstein-Barr virus (strain B95-8) (HHV-4) (Human herpesvirus 4), UniProt P03211); experiment: inhibition of EBV nuclear antigen 1 DNA binding – biochemical, fluorescence polarization, 1536-well, dose response (AID 2381); set-up: species or system human gammaherpesvirus 4;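 note: fluorescence polarization of a Cy5 DNA probe bound by EBNA-1 protein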
Sequence of Epstein-Barr nuclear antigen 1 (P03211 whole entry): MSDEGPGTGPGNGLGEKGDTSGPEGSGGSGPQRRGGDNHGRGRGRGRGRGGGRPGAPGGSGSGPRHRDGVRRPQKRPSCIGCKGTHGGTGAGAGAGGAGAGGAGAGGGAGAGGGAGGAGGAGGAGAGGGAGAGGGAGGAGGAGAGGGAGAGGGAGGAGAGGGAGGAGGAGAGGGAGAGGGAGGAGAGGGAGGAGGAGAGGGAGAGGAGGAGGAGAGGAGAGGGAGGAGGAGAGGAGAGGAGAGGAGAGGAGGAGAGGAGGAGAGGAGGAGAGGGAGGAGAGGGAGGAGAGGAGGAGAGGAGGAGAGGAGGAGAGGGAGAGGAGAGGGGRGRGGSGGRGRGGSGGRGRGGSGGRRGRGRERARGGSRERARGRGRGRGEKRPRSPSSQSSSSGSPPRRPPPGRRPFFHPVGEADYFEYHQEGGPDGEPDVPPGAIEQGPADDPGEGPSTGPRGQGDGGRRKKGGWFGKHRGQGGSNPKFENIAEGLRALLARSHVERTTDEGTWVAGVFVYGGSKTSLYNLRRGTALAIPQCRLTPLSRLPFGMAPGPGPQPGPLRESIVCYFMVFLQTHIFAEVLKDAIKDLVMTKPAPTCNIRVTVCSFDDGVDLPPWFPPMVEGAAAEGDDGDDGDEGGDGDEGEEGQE

[11] = target: Procathepsin L (Homo sapiens, UniProt P07711); experiment: CTSL1 protease inhibition – biochemical, QFRET, 1536-well, counter-screen for M1/M17 aminopeptidase inhibitor project, dose response (AID 2214)
Sequence of Procathepsin L (P07711 whole entry): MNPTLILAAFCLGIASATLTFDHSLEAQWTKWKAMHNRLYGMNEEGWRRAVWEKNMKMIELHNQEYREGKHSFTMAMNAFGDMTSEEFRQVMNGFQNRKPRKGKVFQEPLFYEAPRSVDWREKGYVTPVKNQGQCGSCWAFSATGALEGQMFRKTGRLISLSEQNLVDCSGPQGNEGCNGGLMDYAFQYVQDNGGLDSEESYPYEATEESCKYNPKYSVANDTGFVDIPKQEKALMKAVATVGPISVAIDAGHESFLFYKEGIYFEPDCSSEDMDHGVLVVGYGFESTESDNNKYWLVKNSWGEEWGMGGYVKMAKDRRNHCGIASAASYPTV

[12] = target: T4, Aspartyl aminopeptidase (Plasmodium falciparum 3D7, UniProt Q8I2J3); experiment: Counterscreen for inhibitors of M1 and M17 aminopeptidases: QFRET-based biochemical high throughput dose response assay for inhibitors of the Plasmodium falciparum M18 Aspartyl Aminopeptidase (PFM18AAP). [Related PubChem assays: 1619 (Screening assay (M17LAP inhibitors).), 1445 (Screening assay (M1AAP inhibitors).)]
T4 sequence (Q8I2J3 whole entry): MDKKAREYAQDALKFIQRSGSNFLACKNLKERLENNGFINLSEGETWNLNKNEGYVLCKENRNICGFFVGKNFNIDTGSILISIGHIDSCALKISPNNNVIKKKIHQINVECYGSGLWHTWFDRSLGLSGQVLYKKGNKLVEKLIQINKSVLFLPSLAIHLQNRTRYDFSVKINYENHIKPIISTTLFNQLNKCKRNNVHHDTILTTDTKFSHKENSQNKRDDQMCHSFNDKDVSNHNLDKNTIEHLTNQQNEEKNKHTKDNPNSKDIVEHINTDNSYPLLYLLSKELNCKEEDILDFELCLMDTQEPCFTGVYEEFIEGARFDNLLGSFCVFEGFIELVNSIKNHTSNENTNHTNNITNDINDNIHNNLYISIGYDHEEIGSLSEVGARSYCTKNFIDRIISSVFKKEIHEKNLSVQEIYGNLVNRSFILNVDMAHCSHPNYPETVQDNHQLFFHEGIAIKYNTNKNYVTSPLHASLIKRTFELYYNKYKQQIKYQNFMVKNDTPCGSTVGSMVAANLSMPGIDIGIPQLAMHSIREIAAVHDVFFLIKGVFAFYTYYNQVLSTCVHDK

[13] = target: T5, Leucine aminopeptidase (Plasmodium falciparum 3D7, UniProt Q8IL11); experiment: P. falciparum M17LAP inhibitors, primary screen, biochemical, fluorogenic H-Leu-NHMec substrate, 1536-well (AID 1619); format: functional
T5 sequence (Q8IL11 whole entry): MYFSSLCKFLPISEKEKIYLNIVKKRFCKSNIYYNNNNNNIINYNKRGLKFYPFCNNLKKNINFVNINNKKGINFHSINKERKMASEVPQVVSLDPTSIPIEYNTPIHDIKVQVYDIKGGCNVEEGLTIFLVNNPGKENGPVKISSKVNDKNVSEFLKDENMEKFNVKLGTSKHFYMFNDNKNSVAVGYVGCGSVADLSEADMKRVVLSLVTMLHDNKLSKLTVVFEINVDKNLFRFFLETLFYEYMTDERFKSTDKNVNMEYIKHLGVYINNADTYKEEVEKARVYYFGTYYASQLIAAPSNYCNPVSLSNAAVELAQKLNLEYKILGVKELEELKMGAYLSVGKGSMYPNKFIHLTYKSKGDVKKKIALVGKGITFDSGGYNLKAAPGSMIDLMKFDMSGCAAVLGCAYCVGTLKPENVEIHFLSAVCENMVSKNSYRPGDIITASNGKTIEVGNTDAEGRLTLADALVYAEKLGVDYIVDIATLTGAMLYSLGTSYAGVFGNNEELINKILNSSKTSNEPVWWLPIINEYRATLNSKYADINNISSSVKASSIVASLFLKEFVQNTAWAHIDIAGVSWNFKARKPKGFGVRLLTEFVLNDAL

[14] = system: Danio rerio; experiment: In Vivo Angiogenesis Dose-Response Confirmation. [Related pubchem assays: 732 (Assay preceding this confirmatory assay.)]; format: functional, organism-based
[15] = target: T6, Small ubiquitin-related modifier 1 (Homo sapiens, UniProt P63165); experiment: SUMO1 protein interaction blockers, potency – biochemical, fluorescence polarization, uHTS hits, dose response (AID 624382); format: functional; conditions: read-out: IC50_Mean
T6 sequence (P63165 whole entry): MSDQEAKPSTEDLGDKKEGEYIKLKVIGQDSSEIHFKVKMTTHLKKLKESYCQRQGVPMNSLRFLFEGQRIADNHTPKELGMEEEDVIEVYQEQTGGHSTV

[16] = target: T6, Small ubiquitin-related modifier 1; experiment: SUMO1 protein-protein binding blockers, potency – biochemical, FRET, dose response (AID 624383); format: functional; conditions: read-out: IC50_Mean
[17] = system: Vero; experiment: mammalian cell viability reduction – secondary assay, cytotoxicity control for West Nile virus antiviral project, dose response (AID 1650); format: functional; conditions: Chlorocebus sabaeus
[18] = target: T7, Ubiquitin-conjugating enzyme E2 N (Homo sapiens, UniProt P61088); format: functional;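 note: Dose-response confirmation in a TR-FRET assay detecting UBC13-driven polyubiquitin chain formation, inhibition measured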
T7 sequence (P61088 whole entry): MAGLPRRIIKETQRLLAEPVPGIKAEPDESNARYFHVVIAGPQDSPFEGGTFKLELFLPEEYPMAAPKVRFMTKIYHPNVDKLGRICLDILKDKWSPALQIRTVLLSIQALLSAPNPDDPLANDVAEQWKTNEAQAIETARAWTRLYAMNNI

[19] = Luminescence Cell-Based Dose Confirmation to Identify Activators of 5'UTR Stem-Loop Driven Alpha-Synuclein mRNA Translation in H4 Neuroglioblastoma Cells. [Related pubchem assays: 1829 (Project Summary), 1814 (Primary HTS)]; format: functional
[20] = Luminescence Cell-Based Dose Response to Identify Activators of 5'UTR Stem-Loop Driven Prion Protein mRNA Translation in H4-C Neuroglioblastoma Cells. [Related pubchem assays: 1829 (Project Summary), 1814 (Primary HTS)]; format: functional
[21] = Luminescence Cell-Based Dose Confirmation HTS to Identify Activators of 5'UTR Stem-Loop Driven Alpha-Synuclein mRNA Translation in H4 Neuroglioblastoma Cells. [Related pubchem assays: 1829 (Project Summary), 1814 (Primary HTS)]; format: functional
[22] = Luminescence Cell-Based Dose Response HTS to Identify Activators of Luciferase Translation or Activity in H4 […] Cells. [Related pubchem assays: 1829 (Project Summary), 1814 (Primary HTS)]; format: functional
[23] = Luminescence Cell-Based Dose Response to Identify Activators of Luciferase Translation or Activity in H4-C Neuroglioblastoma Cells. [Related pubchem assays: 1829 (Project Summary), 1814 (Primary HTS)]; format: functional

For `Cc1ccnc(NC(=S)N2CCN(c3cccc(C(F)(F)F)c3)CC2)c1`, the IC50 [1] was > 39.9 µM (not active), the EC50 [2] was > 150 µM (not active) and the EC50 [3] was 22.4 µM (active). For the same compound, the IC50 [4] was > 39.9 µM (not active), the IC50 [5] was 11.6 µM (active) and the EC50 [6] was 1.66 µM (active). For the same compound, the IC50 [7] was 1.76 µM (active) and the IC50 [8] was > 50 µM (inactive).
With `COc1cc(NC(=O)COC(=O)/C=C/c2ccc(Cl)cc2Cl)cc(OC)c1` the IC50 [9] was > 111 µM (not active) and the IC50 [10] was 16.1 µM (not active).
For `COc1cc(NC(=O)CSc2nc3cc(C)ccc3cc2C)c(C(=O)O)cc1OC`, the IC50 [11] was > 59.6 µM (not active), the IC50 [12] was > 73.5 µM (not active) and the IC50 [13] was 1.93 µM (active).
With `Cc1ccc2c(c1)/C(=C1/Nc3ccc(Br)cc3/C1=N\O)C(=O)N2` the IC50 [14] was 2.5 µM (active).
For `Cc1nc2ccc3nc(NC(=O)c4ccco4)sc3c2s1`, the IC50 [1] was 4.28 µM (active), the IC50 [4] was 4.28 µM (active) and the IC50 [15] was > 66.6 µM (inactive). The IC50 [16] was 12.1 µM (active).
With `CCCN(CCC)CCCNC(=O)c1cc2c(=O)n(CC)c3ccccc3c2s1` the CC50 [17] was 18.8 µM (active) and the IC50 [18] was > 20 µM (inactive).
For `O=C(N/N=C/c1ccccc1F)c1csc2c1CCCC2`, the EC50 [19] was 0.227 µM (active), the EC50 [20] was 0.264 µM (active) and the EC50 [21] was < 0.1 µM (active). For the same compound, the EC50 [22] was < 0.1 µM (inconclusive) and the EC50 [23] was 0.323 µM (active).

From ChEMBL document CHEMBL1201862, “PubChem BioAssay data set” (2004)
